Counter-ions that a name gives are not always drawn.

The experiment addresses T1, 5-HT2C receptor (Homo sapiens, UniProt P28335).
T1 construct: host or cells: U2OS
The experiment can be described thus: Functional activity: beta-arrestin2 recruitment to the 5-HT2C receptor in U2OS_HTR2C-β-Arrestin cells (DiscoverX). Type of experiment: cell-based. The following applies: 1.5 h incubation, chemiluminescent β-galactosidase complementation readout, read-out: Potency (EC50) in functional assay. On the procedure: The functional activity of compounds of formula I was assayed by incubation with U2OS_HTR2C—β-Arrestin cells (DiscoverX, 93-0289C3) to induce beta-arrestin2 recruitment to the 5-HT2C receptor. The agonist-induced recruitment and proximity of the receptor and beta-arrestin2 leads to complementation and formation of active β-galactosidase. The enzyme complementation results in enzyme activity, which is measured following the termination of the agonist incubation using DiscoveRx's detection reagent, which contains a chemiluminescent substrate which produces a high intensity signal. Cells were plated and a medium-change to a 1% serum containing medium was performed 24 h later. The next day, test compounds were added and incubated for 1.5 h before addition of detection reagent.
The response produced was measured and compared with the response produced by 10 [mu]M 5-HT or the maximal effect induced by 5-HT (defined as 100%) to which it was expressed as a percentage response (relative efficacy). Dose response curves were constructed using Graphpad Prism (Graph Software Inc.) or using in house adapted software using a 4 parameter dose response model with variable slope (fit=(Bottom+(Top−Bottom)/(1+10̂((LogEC50−x)*HillSlope))res=(y-fit)). Results are compiled in the table below.

T1 sequence (P28335 33-458): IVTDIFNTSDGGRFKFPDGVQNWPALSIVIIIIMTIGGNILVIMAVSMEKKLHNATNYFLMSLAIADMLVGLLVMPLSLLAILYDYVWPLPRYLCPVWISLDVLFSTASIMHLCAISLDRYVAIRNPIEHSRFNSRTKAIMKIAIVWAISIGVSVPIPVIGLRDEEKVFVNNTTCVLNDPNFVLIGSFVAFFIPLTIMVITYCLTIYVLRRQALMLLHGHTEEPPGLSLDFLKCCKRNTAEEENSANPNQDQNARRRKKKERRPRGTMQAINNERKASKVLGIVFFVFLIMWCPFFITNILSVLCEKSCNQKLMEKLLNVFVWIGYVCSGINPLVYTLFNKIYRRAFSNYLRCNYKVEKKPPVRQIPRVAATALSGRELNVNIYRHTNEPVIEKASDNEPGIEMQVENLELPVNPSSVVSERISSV
T1 sequence (P32121 whole entry partner): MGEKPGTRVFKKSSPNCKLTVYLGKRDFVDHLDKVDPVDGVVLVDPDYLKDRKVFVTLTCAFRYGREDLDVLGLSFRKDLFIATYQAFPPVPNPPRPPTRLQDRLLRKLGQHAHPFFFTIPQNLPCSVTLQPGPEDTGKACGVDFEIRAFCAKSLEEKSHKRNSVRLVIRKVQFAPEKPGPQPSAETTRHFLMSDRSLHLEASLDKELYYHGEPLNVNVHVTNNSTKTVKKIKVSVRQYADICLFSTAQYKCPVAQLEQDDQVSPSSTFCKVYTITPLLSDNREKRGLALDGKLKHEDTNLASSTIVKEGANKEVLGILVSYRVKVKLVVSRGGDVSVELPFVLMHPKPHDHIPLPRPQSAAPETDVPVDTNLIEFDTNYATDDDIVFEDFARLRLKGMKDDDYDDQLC

Consider `CC1(C(F)(F)F)CCN2CCNCc3cccc1c32` (single isomer, unassigned) [Example 8, 8-Methyl-8-(trifluoromethyl)-2,3,4,6,7,8-hexahydro-1H-[1,4]diazepino[6,7,1-ij]quinoline], for which the EC50 lay within 20 to 200 nM.

On to `CC1(C(F)(F)F)CCN2CCNCc3cccc1c32` (single isomer, unassigned) [Example 9, 8-Methyl-8-(trifluoromethyl)-2,3,4,6,7,8-hexahydro-1H-[1,4]diazepino[6,7,1-ij]quinoline], for which the 50% effective concentration (EC50) is less than 20 nM.

For `CC1CN2CCNCc3cccc(c32)C1(C)C` (single isomer, unassigned) [Example 27], the EC50 lay within 200 to 1000 nM.

With `CC1CN2CCNCc3cccc(c32)C1(C)C` (single isomer, unassigned) [Example 28], the EC50 was 20 to 200 nM.

With `CC1(C)CCN2CCNCc3cccc1c32` [Example 1, 8,8-Dimethyl-2,3,4,6,7,8-hexahydro-1H-[1,4]diazepino[6,7,1-ij]quinoline], the EC50 was in the range of 20 to 200 nM.

`c1cc2c3c(c1)C1(CCCC1)CCN3CCNC2` [Example 6, 1,2,3,4,6,7-Hexahydrospiro[[1,4]diazepino[6,7,1-ij]quinoline-8,1′-cyclopentane]]: the EC50 lay in the range of 20 to 200 nM.

On to `c1cc2c3c(c1)N1CCC[C@@H]1CN3CCNC2` [Example 16, (R)-5,6,7,9,9a,10,11,12-Octahydro-4H-[1,4]diazepino[1,7,6-de]pyrrolo[1,2-a]quinoxaline bis(2,2,2-trifluoroacetate)], for which the EC50 lay in the range of 200 to 1000 nM.

Regarding `CC1(C)CCN2CCNCc3cc(Cl)cc1c32` [Example 19, 10-Chloro-8,8-dimethyl-2,3,4,6,7,8-hexahydro-1H-[1,4]diazepino[6,7,1-ij]quinoline bis(2,2,2-trifluoroacetate)], the EC50 was 20 to 200 nM.

For the compound `CC1(C)CCN2CCNCc3ccc(F)c1c32` [Example 22, 9-Fluoro-8,8-dimethyl-2,3,4,6,7,8-hexahydro-1H-[1,4]diazepino[6,7,1-ij]quinoline], the EC50 was 20 to 200 nM.

In the case of `c1cc2c3c(c1)C1(CCC1)CCN3CCNC2` [Example 25, 1′,2′,3′,4′,6′,7′-Hexahydrospiro[cyclobutane-1,8′-[1,4]diazepino[6,7,1-ij]quinoline], hydrochloride], the EC50 lay within 20 to 200 nM.

Turning to `Fc1ccc2c3c1C1(CCC1)CCN3CCNC2` [Example 26, 9′-Fluoro-1′,2′,3′,4′,6′,7′-hexahydrospiro[cyclobutane-1,8′-[1,4]diazepino[6,7,1-ij]quinoline], hydrochloride], the EC50 was less than 20 nM.

The EC50 is the concentration that produces a half-maximal response.

For the origin of these results see patent US20140080813A1, “TRICYCLIC QUINOLINE AND QUINOXALINE DERIVATIVES” (ABBVIE DEUTSCHLAND GMBH & CO. KG, priority 2012, published 2014).
